Results taken from paper PMC5908295 (Oncotarget, 2018).

Experiments:
FLT3 (ITD) [1] = target: FLT3 (ITD) (Homo sapiens, UniProt P36888); experiment: KINOMEscan Kd (DiscoverX); type: binding; details: comparison of Kd
Protocol: (§1) Dissociation constants (Kd) and inhibition levels of FLT3 mutants were measured at DiscoverX using the KINOMEscan^TM Profiling Service (KdELECT).

FLT3 (ITD) [2] = target: FLT3 (ITD) (Homo sapiens, UniProt P36888, ITD); experiment: KINOMEscan Kd (DiscoverX); type: binding
Sequence of FLT3 (ITD) (Homo sapiens, UniProt P36888, ITD) (P36888 564-993, change not shown): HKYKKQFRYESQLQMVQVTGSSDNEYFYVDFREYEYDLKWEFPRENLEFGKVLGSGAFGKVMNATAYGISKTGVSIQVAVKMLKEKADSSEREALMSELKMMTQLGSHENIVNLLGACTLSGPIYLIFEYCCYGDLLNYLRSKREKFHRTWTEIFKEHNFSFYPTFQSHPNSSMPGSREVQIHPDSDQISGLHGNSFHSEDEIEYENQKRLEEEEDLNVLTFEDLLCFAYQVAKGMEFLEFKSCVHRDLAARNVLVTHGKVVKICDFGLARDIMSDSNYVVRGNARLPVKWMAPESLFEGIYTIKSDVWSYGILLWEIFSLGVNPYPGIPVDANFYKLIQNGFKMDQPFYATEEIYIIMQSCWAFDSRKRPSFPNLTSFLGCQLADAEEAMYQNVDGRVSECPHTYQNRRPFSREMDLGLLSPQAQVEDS
Protocol: as §1

[3] = test system: S6 phosphorylation (Ser235/236) in MOLM-13 cells; experiment: S6 phosphorylation, flow cytometry; type: cell-based; details: Homo sapiens; MOLM-13, 4 hours
Protocol: (§2) For biomarker experiments, MV-4-11, MOLM-13 and KG-1 cells were seeded at 1 × 10^6 in 3 ml of medium, while MOLM-16 cells were seeded at 1 × 10^6 in 4 ml of medium and left for ~ 18 hours (37°C, 5% CO2). […] Final concertation of DMSO was 0.1%. After 4h of incubation cells were harvested, centrifuged and washed with ice-cold PBS. Cells were fixed with 4% paraformaldehyde buffered with PBS and permeabilized with 90% methanol. Cells were incubated with primary antibody (S6 phopspho-Ser235/236, Cell Signaling, Cat. No: 4856) diluted 1:200 in 0.5% BSA/PBS. […] Cells were analyzed on Flow Cytometer BD LSR II with an excitation wavelength of 488 nm and peak emission 590 nm.

[4] = test system: S6 phosphorylation (Ser235/236) in MOLM-16 cells; experiment: S6 phosphorylation, flow cytometry; type: cell-based; details: MOLM16; MOLM-16, 4 hours
Protocol: as §2

[5] = test system: S6 phosphorylation (Ser235/236) in MV-4-11 cells; experiment: S6 phosphorylation, flow cytometry; type: cell-based; details: Homo sapiens, MV4-11; MV-4-11, 4 hours
Protocol: as §2

[6] = Pharmacokinetics after oral and intravenous administration; type: in vivo, dogs (Beagle); details: male, Beagle, plasma, Dog, Dose PO/IV 5/1 mg/kg
Protocol: therapeutic potential in acute myeloid leukemia
sheet for further calculations.
Three male Beagle dogs were administered

[7] = Metabolic stability, liver S9 fraction; type: in vitro ADME; details: Mouse, 37 °C, read-out: Liver S9 fraction t1/2 (converted)
[8] = Metabolic stability, liver S9 fraction; type: in vitro ADME; details: Rat, 37 °C, read-out: Liver S9 fraction t1/2 (converted)
[9] = Metabolic stability, liver S9 fraction; type: in vitro ADME; details: Dog, 37 °C, read-out: Liver S9 fraction t1/2 (converted)
[10] = Metabolic stability, liver microsomes; type: in vitro ADME; details: Human, 37 °C, read-out: Liver microsomes t1/2 (converted)
[11] = Blood biochemistry in mice with MV-4-11 tumors; type: in vivo; details: treatment day 15
Excerpt: All animals were handled in strict accordance with good animal practice as defined by the relevant national and local animal welfare bodies. SCID and SCID/beige C.B-17 mice were provided by Harlan Laboratories or Charles River Laboratories, and were maintained in pathogen free conditions. For the xenograft experiments, age-matched (9-11 weeks old) females were used. 5×10^6 of MV-4-11 or MOLM-16 cells were suspended in a mixture (1:1, v:v) of PBS with Matrigel (BD Biosciences,) and injected subcutaneously (sc), in a total volume of 100 μL, above the groin on the right hind limb. For MOLM-13 and KG-1 cells, a mixture (3:1, v:v) of PBS and Matrigel HC (BD Bioscience,) was used to inject 5 × 10^6 of cell per mouse subcutaneously (sc), in a total volume of 100 μL. When tumors reached 100-130 mm^3, mice were randomized into uniform groups (6-9 mice per group) and subsequently administered the compound. […] At the end of the experiment, mice were anesthetized with isofluran and blood samples for total cell counts and biochemistry were obtained by retro-orbital bleeding. […] 5×10^6 cells suspended in a mixture (3:1, v:v) of PBS and Matrigel were injected as described above. When the tumor volume reached ~120 mm^3, mice were randomized into uniform groups (5 mice per group) and the compound then administered. […] Tumor volume was monitored every second day and calculated using the formula: TV = (a^2×b)/2, where “a” is the short axis in millimeters, and “b” is the long axis in millimeters. Body weight was assessed every day.
Supplementary Table 9: Related to Figure 5C. […] The assessment of
was performed on treatment day 15.
AST – Aspartate aminotransferase, ALT – Alanine transaminase, ALP – alkaline phosphatase, UREA – blood urea nitrogen,
CREA – Creatinine, CK – Creatine kinase, TP- total protein; ALB – Albumin. […]

MOLM-13 = experiment: MTS viability assay, 72 h; details: Homo sapiens, MOLM-13, 72 h
Protocol: (§3) 15-25 ×10^3 of MV-4-11, MOLM-13, MOLM-14, MOLM-16, KG-1, Eol-1, SKM-1, PL-21, GDM-1, SKNO-1, RS4;11, Kasumi-3 and Kasumi-6 cells were seeded in 150 μL of culture medium onto individual wells in a 96 well plates, in triplicates. On the same day, 50 μL of medium containing tested inhibitor was added to the wells. Each compound was tested at 8 concentrations, in triplicates. As a negative control, the medium containing 0.1% DMSO was used. […] Staurosporine was used at 10 μM as a positive control. One the day of drug addition, basal signal from untreated cells was measured from in triplicate to determine time zero (T0). […] GI50 and LC50 values were extrapolated from a variable (four-parameter) dose-response curve fitted in GraphPad Prism.

MOLM-14 = experiment: MTS viability assay, 72 h; details: Homo sapiens, MOLM-14, 72 h
Protocol: as §3

KASUMI-3 = experiment: MTS viability assay, 72 h; details: Kasumi-3, 72 h
Protocol: as §3

KASUMI-6 = experiment: MTS viability assay, 72 h; details: 72 h
Protocol: as §3

OCI-AML-3 = experiment: MTS viability assay, 72 h; details: Homo sapiens, OCI-AML-3, 72 h
Protocol: as §3

SIG-M5 = experiment: MTS viability assay, 72 h; details: Homo sapiens, SIG-M5, 72 h
Protocol: On the same day, 50 μL of medium containing tested inhibitor was added to the wells. Each compound was tested at 8 concentrations, in triplicates. As a negative control, the medium containing 0.1% DMSO was used. […] Staurosporine was used at 10 μM as a positive control. One the day of drug addition, basal signal from untreated cells was measured from in triplicate to determine time zero (T0). […] GI50 and LC50 values were extrapolated from a variable (four-parameter) dose-response curve fitted in GraphPad Prism.

GDM-1 = experiment: MTS viability assay, 72 h; details: Homo sapiens, GDM-1, 72 h
Protocol: as §3

Sequence of FLT3 (ITD) (Homo sapiens, UniProt P36888) (P36888 564-993, stated change not applied): as the sequence (P36888 564-993, change not shown) above

With CC(C)n1c(C2CCNCC2)nc2c([N+](=O)[O-])c(Br)c(Br)cc21 [SEL24-B489, 5,6-dibromo-4-nitro-2-(piperidin-4-yl)-1-(propan-2-yl)-1H-1,3-benzodiazole] the “stronger inhibitor binding to FLT3-ITD than to FLT3-WT” value (FLT3 (ITD) [1]) was 10 fold, the Kd (FLT3 (ITD) [2]) was 16 nM and the IC50 [3] was 102 nM. For the same compound, the IC50 [4] was 58 nM, the IC50 [5] was 13 nM and the Cmax ([6]; 5 mg/kg) was 155 ng/mL. The Tmax ([6]; 5 mg/kg) was 1.75 h, the bioavailability ([6]; 5 mg/kg, read-out: F (bioavailability)) was 47% and the AUC(0-t) [6] was 3080 ng·h/mL. It also gave a half-life [6] of 17.6 h, a half-life at 1 µM [7] of 2.6 h and a half-life at 1 µM [8] of 4.3 h. The half-life at 1 µM [9] was 6.3 h, the half-life at 1 µM [10] was 21.1 h and the ALB ([11]; SEL24-B489 25 mg/kg) was 5.3 g/dL. It also gave an ALP ([11]; SEL24-B489 25 mg/kg) of 94.2 U/L, an AST ([11]; SEL24-B489 25 mg/kg) of 202.4 U/L and a CK ([11]; SEL24-B489 25 mg/kg) of 2076 U/L. For the same compound, the CREA ([11]; SEL24-B489 25 mg/kg) was 0.40 mg/dL, the K ([11]; SEL24-B489 25 mg/kg) was 5.3 mM and the TP ([11]; SEL24-B489 25 mg/kg) was 5.6 g/dL. For the same compound, the UREA ([11]; SEL24-B489 25 mg/kg) was 6.0 mmol/L, the ALB ([11]; SEL24-B489 50 mg/kg) was 4.4 g/dL and the ALP ([11]; SEL24-B489 50 mg/kg) was 97.2 U/L. It also gave an ALT ([11]; SEL24-B489 50 mg/kg) of 49.4 U/L, an AST ([11]; SEL24-B489 50 mg/kg) of 135.2 U/L and a CK ([11]; SEL24-B489 50 mg/kg) of 1206 U/L. The CREA ([11]; SEL24-B489 50 mg/kg) was 0.49 mg/dL, the K ([11]; SEL24-B489 50 mg/kg) was 5.3 mM and the Na ([11]; SEL24-B489 50 mg/kg) was 141 mM. For the same compound, the TP ([11]; SEL24-B489 50 mg/kg) was 5.1 g/dL, the UREA ([11]; SEL24-B489 50 mg/kg) was 6.6 mmol/L and the GI50 (MOLM-13) was 73 nM. The CC50 (MOLM-13; read-out: LC50) was 446 nM, the GI50 (MOLM-14) was 97 nM and the CC50 (MOLM-14; read-out: LC50) was over 10000 nM. It also gave a GI50 (KASUMI-3) of 633 nM, a CC50 (KASUMI-3; read-out: LC50) of 2330 nM and a GI50 (KASUMI-6) of 17 nM. For the same compound, the GI50 (OCI-AML-3) was 1590 nM, the CC50 (OCI-AML-3; read-out: LC50) was 9210 nM and the GI50 (SIG-M5) was 806 nM. For the same compound, the CC50 (SIG-M5; read-out: LC50) was 3440 nM and the GI50 (GDM-1) was 680 nM.
